Data taken from patent publication US20150320723A1, “Use of Small Molecule Unfolder Protein Response Modulators to Treat Tumors With Active Sonic Hedgehog (SSH) Signaling Due To Smoothened (SMO) Mutation” (ST. JUDE CHILDREN'S RESEARCH HOSPITAL, priority 2013, published 2015).
“Also recorded” adds a separate entry of the source. Residues, ends and D or L forms follow the SMILES beside them. *: point of attachment. Cbz = O=C(OCc1ccccc1)*

How the values were obtained:
oncogenic SmoM2 protein = assay: Initial testing of compounds: SmoM2 protein stability in cultured mouse NIH3T3 cells; type: cell-based
From the text: The four ER stress/UPR modulating compounds listed below (abbreviated and commercial names in parentheses) destabilize oncogenic SmoM2 protein in cultured mouse NIH3T3 cells. • 1. 17-N-Allylamino-17-demethoxygeldanamycin (17-AAG, KOS-953,Tanespimycin), • 2. 17-Dimethylaminoethylamino-17-demethoxygeldanamycin (17-DMAG, KOS-1022, Alvespimycin), • 3. 4-(6,6-dimethyl-4-oxo-3-(trifluoromethyl)-4,5,6,7-tetrahydroindazol-1-yl)-2-((1r,4r)-4-hydroxycyclohexylamino)benzamide (SNX-2112) • 4. Eeyarestatin I (EerI).

[1] = tested on: unfolded protein response (UPR) in myeloma cells; details: cited from earlier work
[2] = cited from earlier work
[3] = tested on: wild type, C318A and M2 mSmo proteins; assay: Temperature sensitivity analysis at 40° C. with the proteasome inhibitor MG132, western blot, NIH3T3 cells; type: cell-based, mouse
Procedure: Given that the bulk of mSmoC318A and mSmoM2 are ER-localized, it was reasoned that, like the active Drosophila mutants, they would be affected by induction of a thermal ER stress response. Thermal ER stress has been observed in mammalian cells cultured at 40° C. (Xu et al., 2011 [53]). Accordingly, it was observed induction of the ER stress response transcription factor CHOP in NIH3T3 cells incubated at this high temperature for 2-4 hours (FIG. 5C). To assess the effect of thermal ER stress on mSmo proteins, wild type, C318A or mSmoM2 was expressed in NIH3T3 cells cultured at 37° C., then shifted to 40° C. for 4 hours prior to whole-cell lysis (FIG. 5C′). […] (FIG. 5C′ lanes 3-6 compared to 1-2). This destabilization is the likely result of ER-associated protein degradation (ERAD), as the ER-resident forms of all three Smo variants were stabilized at 40° C. by the proteasome inhibitor MG132 (FIG. 5C′ white arrowhead, lanes 8, 10 and 12 compared to 7, 9 and 11). The post-ER form of wild type Smo was not altered by MG132 treatment (FIG. 5C′ black arrowhead, lanes 7-8).
For protein stability analysis in mammalian cells, ˜1×10^6NIH3T3 cells were transfected with 2 ug of wild type or mutant pcDNA3.1-amino expression vector (Carroll et al., 2012 [31]). For temperature sensitivity analysis, transfected cells were maintained at 37° C. for ˜44 hours, and then shifted to 40° C. for 4 hours prior to lysis. Whole-cell lysates were prepared in modified RIPA buffer (50 mM Tris-HCl, pH 7.4, 150 mM NaCl, 0.25% deoxycholic acid, 1% NP-40, 1 mM EDTA, 0.1% SDS, 0.5 mM DTT, and 1× PIC (Roche)) by rocking for 30 minutes at 4° C. as described (Nachtergaele et al., 2012 [62]). Cell extracts were cleared by centrifuging at 16,000×g at 4° C. for 45 minutes. Supernatants were collected and analyzed by SDS-Page and western blot using anti-GADD153/CHOP (B-3, SCBT) anti-Smo (E5, SCBT) and anti-tubulin (Cell Signaling) antibodies. […] Whole-cell lysates were prepared in modified RIPA buffer and analyzed as above.

## C=CCNC1=C2C[C@@H](C)C[C@H](OC)[C@H](O)[C@@H](C)/C=C(\C)[C@H](OC(N)=O)[C@@H](OC)/C=C\C=C(/C)C(=O)NC(=CC1=O)C2=O [17-AAG, 17-N-Allylamino-17-demethoxygeldanamycin]
Oncogenic SmoM2 protein
  effect on oncogenic SmoM2 protein: destabilize
[1]
  activation of the branches of the UPR: capable of activating all three branches of the UPR

## CO[C@H]1/C=C\C=C(/C)C(=O)NC2=CC(=O)C(NCCN(C)C)=C(C[C@@H](C)C[C@H](OC)[C@H](O)[C@@H](C)/C=C(\C)[C@@H]1OC(N)=O)C2=O [17-DMAG, 17-Dimethylaminoethylamino-17-demethoxygeldanamycin]
Oncogenic SmoM2 protein
  effect on oncogenic SmoM2 protein: destabilize

## CC1(C)C(N(O)C(=O)Nc2ccc(Cl)cc2)N(c2ccc(Cl)cc2)C(=O)N1CC(=O)NN=CC=Cc1ccc([N+](=O)[O-])o1 (stereo not shown) [Eeyarestatin I, 3-(4-Chlorophenyl)-4-[[[(4-chlorophenyl)amino]carbonyl]hydroxyamino]-5,5-dimethyl-2-oxo-1-imidazolidineacetic acid 2-[3-(5-nitro-2-furanyl)-2-propen-1-ylidene]hydrazide]
Oncogenic SmoM2 protein
  effect on oncogenic SmoM2 protein: destabilize

## C/C=C(/C)C(=O)O[C@H]1C(C)=C2[C@H]([C@@H]1OC(=O)CCCCCCC)[C@@](C)(OC(C)=O)C[C@H](OC(=O)CCCCCCCCCCCNC(=O)C[C@H](N)C(=O)N[C@@H](CCC(=O)N[C@@H](CCC(=O)N[C@@H](CCC(=O)N[C@@H](CCC(=O)O)C(=O)O)C(=O)O)C(=O)O)C(=O)O)[C@@]1(O)[C@H]2OC(=O)[C@@]1(C)O [G-202]
[2]
  in vivo toxicity relative to thapsigargin: significantly reduced

## CC(C)C[C@@H](C=O)NC(=O)[C@H](CC(C)C)NC(=O)[C@H](CC(C)C)NC(=O)OCc1ccccc1 [MG132] (Cbz-Leu-Leu-Leu-aldehyde)
[3]; NIH3T3 cells shifted to 40° C. for 4 hours, MG132 treatment
  ER-resident forms of all three Smo variants (wild type, C318A, M2): protein stability: stabilized
[3]; NIH3T3 cells shifted to 40° C., MG132 treatment
  post-ER form of wild type Smo: unaffected; also recorded: not altered
[3]; NIH3T3 cells shifted to 40° C., MG132 treatment (FIG. 5C' legend)
  destabilization of the ER-resident forms of wild type and both mutants at 40° C.: attenuated

## CC1(C)CC(=O)c2c(C(F)(F)F)nn(-c3ccc(C(N)=O)c(N[C@H]4CC[C@H](O)CC4)c3)c2C1 [SNX-2112, 4-(6,6-dimethyl-4-oxo-3-(trifluoromethyl)-4,5,6,7-tetrahydroindazol-1-yl)-2-((1r,4r)-4-hydroxycyclohexylamino)benzamide]
Oncogenic SmoM2 protein
  effect on oncogenic SmoM2 protein: destabilize

## C[C@@H]1C[C@H]2O[C@@H]2/C=C\C=C\C(=O)Cc2c(Cl)c(O)cc(O)c2C(=O)O1 [radicicol]
[1]
  activation of the branches of the UPR: capable of activating all three branches of the UPR
